Experimental data taken from the supplement of paper PMC10307832.

compound: CC[C@@H]1C(=O)N(C)c2cnc(Nc3ccc(C(=O)NC4CCN(C)CC4)cc3OC)nc2N1C1CCCC1 [BI-2536] + Cc1nc(NC(=O)N2CCC[C@H]2C(N)=O)sc1-c1ccnc(C(C)(C)C(F)(F)F)c1 [Alpelisib] (partner 2 µM); assay: relative viability (nuclei count vs DMSO), 5 days (fraction); higher = more cells survive; conditions: first compound 0.3162 µM
Method in brief: (§1)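 Nuclei were stained with Hoechst during a one-step fixation (final 0.05% Triton X-100, 1% formaldehyde, 1 ug/ml Hoechst) carried out 5 days after dosing, then counted on 4× images. The cells, lung cancer lines in 1536-well plates, had been dosed by pin tool the day after seeding with one drug alone or a fixed anchor-drug dose plus five library-drug doses (not always all listed) in √10 steps. Relative viability is the nuclei count in treated wells divided by that in vehicle wells, and each value is the median of duplicate plates.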

In order of rising relative viability:
1. NCI-H2023  0.0843
2. NCI-H2228  0.211
3. NCI-H1299  0.278
4. SK-LU-1  0.28
5. NCI-H1792  0.34
6. NCI-H1563  0.598

same assay, conditions: first compound 1 µM

In order of rising relative viability:
1. HCC-366  0.0141
2. A549  0.0443
3. NCI-H2023  0.0719
4. HCC-44  0.0737
5. COR-L23  0.0868
6. IA-LM  0.0917
7. EMC-BAC-2  0.12
8. NCI-H1703  0.123
9. SW 1573  0.123
10. LCLC-103H  0.125
11. Calu-6  0.126
12. NCI-H2087  0.132
13. NCI-H1792  0.134
14. NCI-H838  0.144
15. NCI-H520  0.154
16. EBC-1  0.179
17. SK-MES-1  0.186
18. NCI-H2009  0.191
19. NCI-H2228  0.202
20. NCI-H2170  0.223
21. NCI-H2126  0.237
22. NCI-H727  0.238
23. NCI-H661  0.24
24. H3255  0.241
25. SK-LU-1  0.244
26. COR-L 105  0.26
27. NCI-H1666  0.266
28. LK-2  0.282
29. NCI-H596  0.304
30. NCI-H2085  0.307
31. LOU-NH91  0.317
32. NCI-H1299  0.339
33. NCI-H1993  0.541
34. NCI-H1563  0.583

compound: CC1CC(=O)N(C2=CN=C(N=C2N1C3CCCC3)NC4=C(C=C(C=C4)C(=O)NC5CCN(CC5)C)OC)C [NPK76-II-72-1] + Cc1cc(Nc2cc(N3CCN(C)CC3)nc(Sc3ccc(NC(=O)C4CC4)cc3)n2)n[nH]1 [Tozasertib] (partner 0.1 µM); assay: as above; conditions: first compound 0.01 µM
Method in brief: as §1

In order of falling relative viability:
1. SK-MES-1  0.938
2. HCC-44  0.875
3. NCI-H596  0.868
4. NCI-H2085  0.802
5. NCI-H2126  0.8
6. NCI-H2009  0.707
7. LOU-NH91  0.688
8. NCI-H2170  0.688
9. SW 900  0.675
10. NCI-H1666  0.668
11. NCI-H727  0.641
12. H3255  0.623
13. NCI-H2342  0.621
14. NCI-H522  0.617
15. NCI-H1993  0.594
16. NCI-H1648  0.523
17. NCI-H1623  0.467
18. LCLC-103H  0.46
19. NCI-H1650  0.397
20. NCI-H520  0.36
21. COR-L 105  0.351
22. NCI-H661  0.351
23. SK-LU-1  0.341
24. NCI-H2023  0.326
25. EMC-BAC-2  0.298
26. NCI-H2087  0.284
27. NCI-H838  0.27
28. NCI-H2228  0.243
29. ChaGo-K-1  0.239
30. HCC-366  0.204
31. COR-L23  0.195
32. SW 1573  0.168
33. LK-2  0.159

same assay, conditions: first compound 0.03162 µM

In order of rising relative viability:
1. HCC-366  0.156
2. LK-2  0.195
3. NCI-H2087  0.203
4. SW 1573  0.208
5. COR-L23  0.23
6. NCI-H838  0.248
7. ChaGo-K-1  0.256
8. NCI-H2228  0.265
9. EMC-BAC-2  0.339
10. COR-L 105  0.348
11. NCI-H661  0.351
12. SK-LU-1  0.351
13. NCI-H2023  0.366
14. NCI-H1648  0.431
15. NCI-H1623  0.434
16. NCI-H520  0.437
17. NCI-H522  0.443
18. NCI-H1650  0.444
19. NCI-H2342  0.467
20. LCLC-103H  0.508
21. SW 900  0.524
22. NCI-H727  0.616
23. NCI-H1993  0.633
24. NCI-H1666  0.674
25. LOU-NH91  0.674
26. NCI-H2170  0.708
27. H3255  0.729
28. NCI-H2009  0.766
29. NCI-H2085  0.79
30. NCI-H2126  0.812
31. SK-MES-1  0.999
32. NCI-H596  1.07
33. HCC-44  1.16

same assay, conditions: first compound 0.1 µM

In order of falling relative viability:
1. HCC-44  0.962
2. SK-MES-1  0.876
3. NCI-H2126  0.855
4. NCI-H596  0.832
5. NCI-H2085  0.812
6. NCI-H2009  0.807
7. H3255  0.734
8. NCI-H2170  0.69
9. LOU-NH91  0.628
10. NCI-H522  0.562
11. NCI-H727  0.545
12. NCI-H1993  0.545
13. NCI-H1666  0.525
14. NCI-H2342  0.498
15. SW 900  0.482
16. LCLC-103H  0.437
17. NCI-H1650  0.429
18. NCI-H520  0.429
19. NCI-H2023  0.403
20. SK-LU-1  0.361
21. NCI-H1623  0.353
22. NCI-H661  0.35
23. NCI-H2228  0.341
24. COR-L 105  0.305
25. EMC-BAC-2  0.296
26. NCI-H838  0.278
27. NCI-H2087  0.272
28. SW 1573  0.238
29. ChaGo-K-1  0.238
30. COR-L23  0.218
31. LK-2  0.183
32. HCC-366  0.111

same assay, conditions: first compound 0.3162 µM

In order of falling relative viability:
1. SK-MES-1  0.937
2. NCI-H596  0.921
3. NCI-H2085  0.825
4. NCI-H2126  0.783
5. NCI-H522  0.55
6. NCI-H1666  0.546
7. NCI-H727  0.539
8. NCI-H1650  0.501
9. NCI-H1993  0.499
10. LCLC-103H  0.466
11. NCI-H2342  0.437
12. NCI-H520  0.423
13. NCI-H1623  0.341
14. EMC-BAC-2  0.294
15. NCI-H838  0.274
16. SW 1573  0.265
17. NCI-H2087  0.254
18. LK-2  0.187
19. HCC-366  0.118
